Experimental data: patent US6686388B2, “Regulators of the hedgehog pathway, compositions and uses related thereto” (priority 1999, dated 2004)
Read-outs that look alike come from different tables or passages of the source.

What was measured:
[1] = tested on: medulloblastoma tumor cells; assay type: cell-based, mouse
Method: These medulloblastoma cells were derived from tumors that arose in the brains of mice heterozygous for an inactivating mutation in the ptc gene (“heterozygous ptc knockout mice”). Mutation of ptc leads to inappropriate activation of the Hh signaling pathway, and in these ptc knockout mice, the ptc mutation results in the occurrence of medulloblastomas. The medulloblastoma tumor cells were placed into primary culture in neuronal culture medium (Basal Medium of Eagle, with 10% calf serum, 25 mM KCl, and 2 mM glutamine). Cells were typically seeded at 0.5 or 1.0×10^6 cells/well of a 24 well plate, in 0.5 ml of medium per well. […] From 2-3 DIV, bromodeoxyuridine (BrdU) was added to the cultures, to label proliferating cells. On 3 DIV, cells were fixed with paraformaldehyde. […] The numbers of total and BrdU(+) cells were then scored in multiple fields in wells of each condition, to determine the percent proliferating cells under different treatments. The scorer was blinded as to the treatments of the cells.
(§1) To determine the effects of cAMP agonist drugs on the Hedgehog (Hh) signaling pathway in tumor cells, medulloblastoma cells were grown in primary culture. These medulloblastoma brain tumors arose in mice heterozygous for an inactivating mutation in the ptc-1 gene (“heterozygous ptc knockout mice”). Mutation of ptc-1 leads to inappropriate activation of the Hh signaling pathway, and in these ptc-1 knockout mice, the ptc-1 mutation results in the occurrence of medulloblastoma. The medulloblastoma tumor cells were placed into primary culture in neuronal culture medium (Basal Medium of Eagle, with 10% serum, 25 mM KCl, and 2 mM glutamine). Cells were typically seeded at 0.5 or […] cells/well of a 24 well plate, in 0.5 ml of medium. One day after seeding (i.e., on 1 day in vitro, or DIV), cells were treated with forskolin (50 μM final), or an equal amount of vehicle (0.1% DMSO). On 3 DIV, RNA was isolated from the cells, and the expression of the Hh-response gene gli-1 was determined by RT-PCR analysis.
In order to test the effects of cAMP agonists on the proliferation of Hh-pathway tumor cells, primary medulloblastoma cell cultures were similarly treated with forskolin or control vehicle. From 2-3 DIV, bromodeoxyuridine (BrdU) was then added to the cultures, to label proliferating cells. On 3 DIV, cells were fixed with paraformaldehyde. […] The number of total and BrdU(+) cells were then scored in multiple fields in wells of each condition, to determine the percent proliferating cells under different treatments. The scorer was blinded as to the treatments of the cells.

gli-1 = gli-1 expression by RT-PCR in primary medulloblastoma cells; assay type: cell-based, mouse; conditions: 50 μM, RNA on 3 DIV
Method: as §1

medulloblastoma cells = assay: tritiated thymidine incorporation assay in medulloblastoma cells; assay type: cell-based, mouse; conditions: typical assay
Method: In order to test the effects of cAMP agonists on the proliferation of Hh-pathway tumor cells, primary medulloblastoma cell cultures were similarly treated with forskolin or control vehicle. From 2-3 DIV, bromodeoxyuridine (BrdU) was then added to the cultures, to label proliferating cells. On 3 DIV, cells were fixed with paraformaldehyde. Cells were then immunostained with an antibody to BrdU to identify cells that had been proliferating, and counterstained with bisbenzimide to determine total cell number. The number of total and BrdU(+) cells were then scored in multiple fields in wells of each condition, to determine the percent proliferating cells under different treatments. The scorer was blinded as to the treatments of the cells. […] Similar results were obtained when proliferation was measured using a tritiated thymidine incorporation assay, and other cAMP agents were also found to be effective.

Hh signaling = assay: Xgal staining of subcutaneous medulloblastoma tumors after drug infusion; assay type: in vivo, mouse; conditions: tumor infusion for several days, compared to control (water)
From the text: (§2) To determine whether Hh signaling inhibitors can inhibit tumor growth in vivo, medulloblastoma cells from ptc-1 knockout mice were transplanted subcutaneously into athymic (“nude”) mice. After allowing time for the tumor cells to grow at the injection site, the transplanted mice were divided into groups, and treated with either control vehicle, or cAMP agonist drugs. In one set of experiments, tumors were infused with either H-forskolin, or water as a control. After several days of drug infusion, the mice were sacrificed, and the tumors were sectioned for histology. The transplanted medulloblastoma cells from the ptc knockout mice contain a lacZ transgene (encoding β-galactosidase), the expression of which is induced by Hh signaling. Therefore, the level of β-galactosidase in these cells indicates their level of […] signaling. Thus, in order to determine how effectively the infused drug inhibited Hh signaling in the tumor, the tumor sections were stained for β-galactosidase activity using the substrate Xgal, which stains expressing cells blue.

[2] = tested on: medulloblastoma cells from ptc-1 knockout mice; assay: growth of subcutaneous-transplanted medulloblastoma tumors in nude mice; assay type: in vivo, mouse
From the text: as §2
In order to determine whether Hh pathway inhibitors can inhibit tumor growth in vivo, cAMP agonists were administered to mice that, as above, had subcutaneous medulloblastoma tumors. In one experiment, one group of mice received daily intraperitoneal injections of forskolin, while control mice received equivalent injections of vehicle (DMSO). The volumes of the tumors were regularly determined by measuring tumor dimensions with a caliper. In the mice treated with DMSO control, the tumors grew much more rapidly than in the mice treated with forskolin. […] In a similar experiment, H-forskolin or control vehicle was administered systemically to mice continuously, via an osmotic minipump that was implanted subcutaneously (and replaced regularly). Again in this experiment (FIG. 13), tumor size was smaller in the H-forskolin-treated mice than in the control mice.

[3] = tested on: hair follicle development; assay: topical application on newborn Ptc-lacZ mice, skin histology; assay type: in vivo, mouse; conditions: 5 mM in DMSO topical, twice a day, 7 days
Method: This effect may be due to the inhibition of the Hh pathway by forskolin, as the Hh pathway plays a critical role in hair follicle development (FIG. 14). Postnatal day 2 mouse pups were used for this experiment. For each pup, 5 μl of DMSO or forskolin in DMSO (5 mM) was applied on the center of the back using a micro-pipette tip. The same procedure is repeated twice, with a total of […] compound applied each time. The procedure was performed on the same animal twice a day for a period of 7 days. The pups were then sacrificed and the skin was taken from the applied area for histology analysis. H&E staining was performed on the paraffin embedded sections.

hair development = assay: injection of pregnant female mouse, hair development in the fetus; assay type: in vivo
Method: For these experiments, 20 μl of forskolin in DMSO (50 mM) was injected into a pregnant female mouse daily for E14.5 to E17.5 intraperitoneally. The mouse was sacrificed at E17.5 and the fetuses were removed for gross inspection. The skin from each fetus was processed for H&E staining.

[4] = tested on: basal cell carcinoma tissue; assay: subcutaneous injection near basal cell carcinoma, histology; assay type: in vivo, mouse; conditions: subcutaneous near the tumor, once a day, 21 days
Method: Experiments were conducted to determine the effect of cAMP elevating agents on basal cell carcinoma tissue. A solution of forskolin (50 mM) in ethanol was diluted 1:2 with cremophor (resulting in 50% ethanol/50% cremophor), then diluted 1:5 with PBS or normal saline (resulting in final 10% ethanol/10% cremophor/80% PBS or saline. The solution was administered by subcutaneous injection at different sites near the tumor (e.g., within a few millimeters of the margin), but not into the tumor itself. Treatment continued once a day every 24 hours for 21 days, 1 μl compound/g weight. After treatment, tumor size was measured, and the tumor was removed and analyzed by histology to determine morphological changes. Untreated BCC tissue is depicted in FIG. 16, and forskolin-treated tissue is depicted in FIGS. 17-18.

hair follicles = assay: hydron pellet implantation into ptc-1 lacZ skin punches, 8 days of culture; assay type: cell-based, mouse; conditions: implanted pellets, Shh supplied with the culture medium
Method: FIG. 19 depicts hydron pellet implantation into 3-day mouse ptc-1 lacZ skin punches after 8 days of culture. Ethanol, hydron polymer, and Shh or forskolin in PBS, respectively, were mixed according to the manufacturer's instructions, poured in 2 mm pellet casts and dried/UV-irradiated over night. Alternatively, 3 mg/ml of octylated Shh protein was added to the culture medium (on day 1, 3 and 5) for the medium control as well as the forskolin-pellet implant. 3-day-old skin was harvested from the backs of mouse pups transgenic for ptc-1 lacZ, as identified by lacZ reporter detection using tails, by standard procedures. 6 mm skin punches were taken using Miltex skin punches and incubated for 60 min. Pellets were inserted by carefully separating the dermal from the epidermal layer using forceps. Cultures were grown for 8 days, fixed in lacZ fixative according to standard protocols, rinsed and stained for lacZ over night at 37° C.
Results: (A) Untreated control, showing a small number of short hairs. […] Hair length and thickness of the dermis thickness are increased as well. Ptc-lacZ, a reporter gene indicative of Shh signaling is induced in follicular as well as basal cells (blue stain), although partially obscured by melanin. […] Note the highly localized area of follicle induction, corresponding to the area adjacent to bead insertion. […]

[5] = 10 μM, BrdU 2-3 DIV, fixed 3 DIV, typical experiment

In the case of `CC1=C2C(=O)[C@H]3[C@@H](CC=C4C[C@@H](O)CC[C@@]43C)[C@@H]2CC[C@]12O[C@@H]1C[C@H](C)CN[C@H]1[C@H]2C` [jervine], the “inhibition of proliferation of the medulloblastoma cells” value ([1]; 10 μM) is reported as “strongly inhibit proliferation” and the “percent proliferation (BrdU(+) cells)” value [1, 5] is reported as 0.2%.

For `C[C@H]1CC[C@]2(NC1)O[C@H]1C[C@H]3[C@@H]4CC[C@H]5C[C@@H](O)CC[C@]5(C)[C@H]4CC[C@]3(C)[C@H]1[C@@H]2C` [tomatidine], the “percent proliferation (BrdU(+) cells)” value [1, 5] was 5.9%.

For forskolin, the “inhibition of proliferation of the medulloblastoma cells” value ([1]; forskolin 50 μM) was “strongly inhibit proliferation”, the inhibition of proliferation ([1]; forskolin 50 μM versus DMSO control) was 95% and the “percent proliferation (BrdU(+) cells)” value ([1]; forskolin 50 μM, typical experiment (FIG. 5)) was 0.4%. For the same compound, the gli-1 expression (gli-1) was “strongly inhibit gli-1 expression”, the “inhibition of tritiated thymidine incorporation” value (medulloblastoma cells) was 93% and the “Xgal staining of tumors” value (Hh signaling) was “lower Xgal staining”. For the same compound, the “tumor regression in one treated mouse” value ([2]; daily intraperitoneal injections) was “regressed, disappeared, and has not reappeared in over 60 days”, the tumor growth ([2]; daily intraperitoneal injections, versus DMSO) was “did not grow excessively large” and the “hair density and hair follicle structure” value [3] was “decrease of hair density and abnormalities of hair follicle structure”. The “hair development in the fetus” value (hair development; 20 μl of 50 mM in DMSO intraperitoneally daily E14.5 to E17.5) was “severe disruption of hair development”, the “number of hair follicles in fetal skin” value (hair development; 20 μl of 50 mM in DMSO intraperitoneally daily E14.5 to E17.5, some fetuses) was “great reduction of the number of hair follicles” and the BCC tissue histology [4] was “tumor shrinkage and/or cell death”. For the same compound, the “hair follicles, hair length, pigmentation and dermis thickness” value (hair follicles) was “reduction of hair follicles, hair length, pigmentation and dermis thickness to levels comparable to the control”.

For `CC1=C2C[C@H]3[C@@H](CC=C4C[C@@H](O)CC[C@@]43C)[C@@H]2CC[C@]12O[C@@H]1C[C@H](C)CN[C@H]1[C@H]2C` [cyclopamine], the “inhibition of proliferation of the medulloblastoma cells” value ([1]; 10 μM) was “strongly inhibit proliferation”.

For `C=CC1(C)CC(=O)C2(O)C(C)(O1)C(OC(=O)CCCN1CCN(C)CC1)C(O)C1C(C)(C)CCC(O)C12C` (centres unmarked) [H-forskolin, 7-deacetyl-7-[O-(N-methylpiperazino)-gamma-butyryl]-forskolin], the “inhibition of tritiated thymidine incorporation” value (medulloblastoma cells) was 91%, the “Xgal staining of tumors” value (Hh signaling) was “reduced Xgal staining” and the tumor size ([2]; systemic, continuous via subcutaneous osmotic minipump, versus control mice) was “smaller”.
